According to US7598255B2 (Janssen Pharmaceutica NV, priority 2005, dated 2009):
Structures can show the parent of a compound that is named as a salt.

Columns and labels:
[1] = target: human recombinant 5-HT6 receptor (Homo sapiens, UniProt P50406); test: Affinity for 5-HT6 receptor binding sites, [3H]LSD; conditions: HEK-293 h5-HT6 membranes
[2] = target: T1, human recombinant 5-HT2C receptor (Homo sapiens, UniProt P28335); test: Affinity for 5HT2 receptor binding sites, h5-HT2C, [3H]mesulergine; conditions: CHO h5-HT2C membranes
T1 sequence (P28335 33-458): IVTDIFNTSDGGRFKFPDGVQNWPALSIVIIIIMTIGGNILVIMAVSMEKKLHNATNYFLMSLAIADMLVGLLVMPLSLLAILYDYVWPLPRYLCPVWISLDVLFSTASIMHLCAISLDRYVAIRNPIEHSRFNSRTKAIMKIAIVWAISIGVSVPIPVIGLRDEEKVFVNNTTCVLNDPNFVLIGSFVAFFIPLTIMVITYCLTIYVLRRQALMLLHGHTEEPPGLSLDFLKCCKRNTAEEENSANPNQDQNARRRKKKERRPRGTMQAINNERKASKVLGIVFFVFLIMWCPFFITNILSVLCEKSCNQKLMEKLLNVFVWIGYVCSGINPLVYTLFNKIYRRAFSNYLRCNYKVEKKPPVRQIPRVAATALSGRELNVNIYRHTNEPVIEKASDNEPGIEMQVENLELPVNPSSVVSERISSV
Experimental: (§1) Sigmoidal inhibition curves were generated and fitted by nonlinear regression analysis (GraphPad Prism).
(§2) Receptor binding was performed using the human recombinant 5-HT2A (GB: X57830), 5-HT2B (GB: Z36748) and 5-HT2C (GB: M81778) receptors. The affinity of the compounds for the 3 different human 5-HT2 receptor subtypes was evaluated by competitive radioligand binding assays using [^3H]ketanserin (h5-HT2A) or [^3H]mesulergine (h5-HT2B and h5-HT2C). The assays were performed on membranes prepared from NIH3T3 stably transfected with h5-HT2A or CHO stably transfected with h5-HT2B and h5-HT2C.

5-HT2A receptor = 5-HT2A receptor (Homo sapiens, UniProt P28223); test: Affinity for 5-HT2A receptor binding sites, radioligand binding with [3H]ketanserin; conditions: read-out: Ki 5-HT2A, rat cortex membranes (assay 2) or NIH3T3 h5-HT2A membranes (assay 3), table does not say which
rat 5-HT7a receptor = rat 5-HT7a receptor (Rattus norvegicus, UniProt P32305); test: Affinity for 5-HT7 receptor binding sites, radioligand binding with [3H]5-CT; conditions: membranes of HEK-293 cells with rat 5-HT7a, 1 nM [3H]5-CT
Procedure, shortened: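 Competition binding on membranes from HEK-293 cells stably expressing rat 5-HT7a, 135 μg protein/mL in 50 mM Tris-HCl pH 7.5, 5 mM EDTA. Incubated 60 min at RT with 1 nM [3H]5-CT and increasing compound concentrations; nonspecific binding with 10 μM 5-HT. Filtration and scintillation counting, in triplicate.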

5-HT2B receptor = 5-HT2B receptor (Homo sapiens, UniProt P41595); test: Affinity for 5HT2 receptor binding sites, h5-HT2B, [3H]mesulergine; conditions: CHO h5-HT2B membranes
Chain of 5-HT2B receptor (P41595 whole entry): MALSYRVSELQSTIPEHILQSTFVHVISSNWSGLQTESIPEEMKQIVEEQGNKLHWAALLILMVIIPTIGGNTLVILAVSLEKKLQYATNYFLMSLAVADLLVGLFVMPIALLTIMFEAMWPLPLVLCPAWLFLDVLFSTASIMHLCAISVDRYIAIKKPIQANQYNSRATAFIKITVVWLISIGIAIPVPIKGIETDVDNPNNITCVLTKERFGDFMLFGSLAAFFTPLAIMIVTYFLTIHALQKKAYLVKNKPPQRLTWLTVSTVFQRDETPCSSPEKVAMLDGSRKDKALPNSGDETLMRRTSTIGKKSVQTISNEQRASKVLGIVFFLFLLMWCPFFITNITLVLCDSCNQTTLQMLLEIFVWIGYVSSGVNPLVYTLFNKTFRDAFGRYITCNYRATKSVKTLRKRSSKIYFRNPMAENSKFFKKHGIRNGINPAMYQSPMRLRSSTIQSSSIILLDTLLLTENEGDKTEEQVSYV
Experimental: as §1, §2

Chain of rat 5-HT7a receptor (P32305 whole entry): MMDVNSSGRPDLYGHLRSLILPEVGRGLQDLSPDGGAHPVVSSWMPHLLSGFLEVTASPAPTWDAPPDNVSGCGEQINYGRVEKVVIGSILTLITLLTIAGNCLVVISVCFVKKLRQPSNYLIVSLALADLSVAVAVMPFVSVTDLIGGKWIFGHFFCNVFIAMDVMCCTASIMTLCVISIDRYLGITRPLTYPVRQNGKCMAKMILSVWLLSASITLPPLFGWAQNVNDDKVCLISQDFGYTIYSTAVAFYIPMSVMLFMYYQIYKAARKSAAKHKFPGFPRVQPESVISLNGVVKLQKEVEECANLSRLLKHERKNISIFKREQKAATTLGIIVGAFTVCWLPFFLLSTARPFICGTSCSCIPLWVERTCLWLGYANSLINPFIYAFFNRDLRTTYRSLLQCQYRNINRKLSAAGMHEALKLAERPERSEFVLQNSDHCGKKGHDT
Chain of human recombinant 5-HT6 receptor (P50406 whole entry): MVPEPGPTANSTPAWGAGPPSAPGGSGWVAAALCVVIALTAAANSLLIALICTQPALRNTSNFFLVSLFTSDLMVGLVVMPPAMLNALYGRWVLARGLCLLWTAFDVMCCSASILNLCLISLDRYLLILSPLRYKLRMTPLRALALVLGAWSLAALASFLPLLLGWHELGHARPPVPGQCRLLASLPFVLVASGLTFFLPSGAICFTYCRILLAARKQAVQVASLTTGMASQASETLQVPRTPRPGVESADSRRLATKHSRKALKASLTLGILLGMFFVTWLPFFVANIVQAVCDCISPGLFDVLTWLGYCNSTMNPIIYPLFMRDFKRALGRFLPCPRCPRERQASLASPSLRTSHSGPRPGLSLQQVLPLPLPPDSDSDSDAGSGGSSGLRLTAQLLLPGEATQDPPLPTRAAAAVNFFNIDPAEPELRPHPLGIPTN

SMILES | Ki [1] [µM] | Ki [2] [µM] | Ki (5-HT2A receptor) [µM] | Ki (rat 5-HT7a receptor) [µM] | Ki (5-HT2B receptor) [µM]
Cc1ccc(-c2nc(C3CCCC3)nc3c2CCN(C)CC3)cc1 [Example 59, 2-Cyclopentyl-7-methyl-4-p-tolyl-6,7,8,9-tetrahydro-5H-pyrimido[4,5-d]azepine] | 0.02 | 0.029 | 0.0015 | 0.1 | 0.0078
CNC1CCc2nc(C(C)C)nc(-c3ccc(F)cc3)c2C1 (centres unmarked) [Example 109, [4-(4-Fluoro-phenyl)-2-isopropyl-5,6,7,8-tetrahydro-quinazolin-6-yl]-methyl-amine hydrochloride] | > 10 | > 10 | 0.4 | > 10 | > 10
Cc1ccc(-c2nc(Cc3ccccc3)nc3c2CCN(C)CC3)cc1 [Example 61, 2-Benzyl-7-methyl-4-p-tolyl-6,7,8,9-tetrahydro-5H-pyrimido[4,5-d]azepine] | 0.02 | 0.035 | 0.0019 | 0.25 | 0.015
CC(C)N1CCc2c(nc(Cc3ccccc3)nc2-c2ccc(F)cc2)C1 [Example 83, 2-Benzyl-4-(4-fluoro-phenyl)-7-isopropyl-5,6,7,8-tetrahydro-pyrido[3,4-d]pyrimidine] | 0.23 | 0.3 | 0.03 | > 10 | 1
COc1ccc(-c2nc(C3CCCC3)nc3c2CCN(C)CC3)cc1 [Example 60, 2-Cyclopentyl-4-(4-methoxy-phenyl)-7-methyl-6,7,8,9-tetrahydro-5H-pyrimido[4,5-d]azepine] | 0.06 | 0.06 | 0.006 | 0.4 | 0.01
Fc1ccc(-c2nc(Cc3ccccc3)nc3c2CNCCC3)cc1 [Example 69, 2-Benzyl-4-(4-fluoro-phenyl)-6,7,8,9-tetrahydro-5H-1,3,6-triaza-benzocycloheptene hydrochloride] | 7.1 | 0.65 | – | > 10 | > 10
CC(C)c1nc2c(c(-c3ccc(F)cc3)n1)CCCNC2 [Example 65, 4-(4-Fluoro-phenyl)-2-isopropyl-6,7,8,9-tetrahydro-5H-pyrimido[4,5-c]azepine hydrochloride] | > 10 | 0.57 | 0.02 | > 10 | 0.3
Cc1ccc(-c2nc(Cc3ccccc3)nc3c2CNCC3)cc1 [Example 8, 2-Benzyl-4-p-tolyl-5,6,7,8-tetrahydro-pyrido[4,3-d]pyrimidine] | 0.2 | 0.32 | 0.02 | 1 | 1
Cc1ccc(-c2nc(Cc3ccccc3)nc3c2CCNCC3)cc1 [Example 55, 2-Benzyl-4-p-tolyl-6,7,8,9-tetrahydro-5H-pyrimido[4,5-d]azepine] | 0.0085 | 0.016 | 0.00042 | 0.035 | 0.0025
FC(F)(F)c1ccc(-c2nc(Cc3ccccc3)nc3c2CCNCC3)cc1 [Example 56, 2-Benzyl-4-(4-trifluoromethyl-phenyl)-6,7,8,9-tetrahydro-5H-pyrimido[4,5-d]azepine] | 0.03 | 0.038 | 0.0008 | 0.18 | 0.022
Cc1ccc(-c2nc(C3CCCC3)nc3c2CCNCC3)cc1 [Example 47, 2-Cyclopentyl-4-p-tolyl-6,7,8,9-tetrahydro-5H-pyrimido[4,5-d]azepine] | 0.012 | 0.022 | – | 0.03 | 0.001
CC(C)c1nc2c(c(-c3ccc(Cl)cc3)n1)CNCC2 [Example 29, 4-(4-Chloro-phenyl)-2-isopropyl-5,6,7,8-tetrahydro-pyrido[4,3-d]pyrimidine] | > 10 | 2 | 0.24 | > 10 | 1.6
Fc1ccc(-c2nc(Cc3ccccc3)nc3c2CCNCC3)cc1 [Example 54, 2-Benzyl-4-(4-fluoro-phenyl)-6,7,8,9-tetrahydro-5H-pyrimido[4,5-d]azepine] | 0.03 | 0.02 | 0.00055 | 5 | 0.03
CCC(C)c1nc2c(c(-c3ccc(F)cc3)n1)CNCC2 (centres unmarked) [Example 3, 2-sec-Butyl-4-(4-fluoro-phenyl)-5,6,7,8-tetrahydro-pyrido[4,3-d]pyrimidine hydrochloride] | > 10 | 1.02 | – | > 10 | 2.25
CN1CCc2nc(C3CCCC3)nc(-c3ccc(F)cc3)c2CC1 [Example 58, 2-Cyclopentyl-4-(4-fluoro-phenyl)-7-methyl-6,7,8,9-tetrahydro-5H-pyrimido[4,5-d]azepine] | 0.1 | 0.03 | 0.002 | > 10 | 0.04
Cc1ccc(-c2nc(Cc3ccccc3)nc3c2CCN(Cc2ccccc2)C3)cc1 [Example 71, 2,7-Dibenzyl-4-p-tolyl-5,6,7,8-tetrahydro-pyrido[3,4-d]pyrimidine] | 0.3 | 3.58 | 1.03 | > 10 | 4.33
CC(C)c1nc2c(c(-c3ccc(F)cc3)n1)CN(C)CC2 [Example 22, 4-(4-Fluoro-phenyl)-2-isopropyl-6-methyl-5,6,7,8-tetrahydro-pyrido[4,3-d]pyrimidine] | – | 1.3 | 0.032 | > 10 | 0.5
Cc1nc2c(c(-c3ccc(Cl)cc3)n1)CCNCC2 [Example 51, 4-(4-Chloro-phenyl)-2-methyl-6,7,8,9-tetrahydro-5H-pyrimido[4,5-d]azepine] | – | 9 | 0.47 | > 10 | 0.14
CC(C)c1nc2c(c(-c3ccc(Cl)c(Cl)c3)n1)CNCC2 [Example 23, 4-(3,4-Dichloro-phenyl)-2-isopropyl-5,6,7,8-tetrahydro-pyrido[4,3-d]pyrimidine hydrochloride] | – | > 10 | 0.5 | > 10 | > 10
Cc1cc(-c2nc(C(C)C)nc3c2CCN(C)C3)cs1 [Example 90, 2-Isopropyl-7-methyl-4-(5-methyl-thiophen-3-yl)-5,6,7,8-tetrahydro-pyrido[3,4-d]pyrimidine hydrochloride] | – | 1 | 0.017 | 2.3 | 0.13
CN1CCc2nc(Cc3ccc(F)cc3)nc(-c3ccc(F)cc3)c2C1 [Example 14, 2-(4-Fluoro-benzyl)-4-(4-fluoro-phenyl)-6-methyl-5,6,7,8-tetrahydro-pyrido[4,3-d]pyrimidine] | – | 4 | 0.03 | > 10 | 4
CNCc1cc(-c2ccc(F)cc2)nc(C(C)C)n1 [Example 114, [6-(4-Fluoro-phenyl)-2-isopropyl-pyrimidin-4-ylmethyl]-methyl-amine] | – | 1 | 0.035 | > 10 | 0.3
Fc1ccc(-c2nc(C3CCC3)nc3c2CNCC3)cc1 [Example 5, 2-Cyclobutyl-4-(4-fluoro-phenyl)-5,6,7,8-tetrahydro-pyrido[4,3-d]pyrimidine hydrochloride] | – | 0.25 | 0.013 | > 10 | 0.35
CC(C)c1nc2c(c(-c3ccc(F)cc3)n1)CN(Cc1ccccc1)C2 [Example 106, hydrochloride] | – | > 10 | 0.09 | > 10 | 6.3
CC(C)c1nc2c(c(-c3ccsc3)n1)CCN(C)C2 [Example 91, 2-Isopropyl-7-methyl-4-thiophen-3-yl-5,6,7,8-tetrahydro-pyrido[3,4-d]pyrimidine hydrochloride] | – | 9 | 0.075 | > 10 | 0.2
COc1ccc(-c2nc(C3CCCC3)nc3c2CNCC3)cc1 [Example 19, 2-Cyclopentyl-4-(4-methoxy-phenyl)-5,6,7,8-tetrahydro-pyrido[4,3-d]pyrimidine] | – | 0.2 | 0.1 | > 10 | 0.14
CCC(C)c1nc2c(c(-c3ccccc3F)n1)CNCC2 (centres unmarked) [Example 42, 2-sec-Butyl-4-(2-fluoro-phenyl)-5,6,7,8-tetrahydro-pyrido[4,3-d]pyrimidine hydrochloride] | – | > 10 | 0.12 | > 10 | > 10
CC(C)c1nc2c(c(-c3ccccc3)n1)CCN(C)C2 [Example 85, 2-Isopropyl-7-methyl-4-phenyl-5,6,7,8-tetrahydro-pyrido[3,4-d]pyrimidine] | – | > 10 | 0.082 | > 10 | 1.15
